Series [1] concerns the target angiotensin converting enzyme (ACE) (Homo sapiens, UniProt P12821). To be noted: cited from earlier work.
Series [2] can be described thus: 1 mg/ml ramipril solution in buffer, principal impurity after 12 hours at 50° C. It counts as physicochemical. As for the experimental part:
An experiment was carried out in which 50 mg of ramipril was dispersed in 50 ml water and known concentrations of buffer were added. The solutions were placed in a stoppered bottle and stored for 12 hours at 50° C.

Where [3] appears, read: buffer Sodium carbonate 0.24 mg/ml.
The mark [4] stands for this setting: buffer Sodium carbonate 0.74 mg/ml.
Where [5] appears, read: buffer Sodium carbonate 1.00 mg/ml.
The mark [6] stands for this setting: buffer Sodium citrate 0.72 mg/ml.
Where [7] appears, read: buffer Sodium citrate 1.00 mg/ml.
The mark [8] stands for this setting: buffer Sodium citrate 1.90 mg/ml.

Chain of angiotensin converting enzyme (ACE) (P12821 30-1306, species assumed): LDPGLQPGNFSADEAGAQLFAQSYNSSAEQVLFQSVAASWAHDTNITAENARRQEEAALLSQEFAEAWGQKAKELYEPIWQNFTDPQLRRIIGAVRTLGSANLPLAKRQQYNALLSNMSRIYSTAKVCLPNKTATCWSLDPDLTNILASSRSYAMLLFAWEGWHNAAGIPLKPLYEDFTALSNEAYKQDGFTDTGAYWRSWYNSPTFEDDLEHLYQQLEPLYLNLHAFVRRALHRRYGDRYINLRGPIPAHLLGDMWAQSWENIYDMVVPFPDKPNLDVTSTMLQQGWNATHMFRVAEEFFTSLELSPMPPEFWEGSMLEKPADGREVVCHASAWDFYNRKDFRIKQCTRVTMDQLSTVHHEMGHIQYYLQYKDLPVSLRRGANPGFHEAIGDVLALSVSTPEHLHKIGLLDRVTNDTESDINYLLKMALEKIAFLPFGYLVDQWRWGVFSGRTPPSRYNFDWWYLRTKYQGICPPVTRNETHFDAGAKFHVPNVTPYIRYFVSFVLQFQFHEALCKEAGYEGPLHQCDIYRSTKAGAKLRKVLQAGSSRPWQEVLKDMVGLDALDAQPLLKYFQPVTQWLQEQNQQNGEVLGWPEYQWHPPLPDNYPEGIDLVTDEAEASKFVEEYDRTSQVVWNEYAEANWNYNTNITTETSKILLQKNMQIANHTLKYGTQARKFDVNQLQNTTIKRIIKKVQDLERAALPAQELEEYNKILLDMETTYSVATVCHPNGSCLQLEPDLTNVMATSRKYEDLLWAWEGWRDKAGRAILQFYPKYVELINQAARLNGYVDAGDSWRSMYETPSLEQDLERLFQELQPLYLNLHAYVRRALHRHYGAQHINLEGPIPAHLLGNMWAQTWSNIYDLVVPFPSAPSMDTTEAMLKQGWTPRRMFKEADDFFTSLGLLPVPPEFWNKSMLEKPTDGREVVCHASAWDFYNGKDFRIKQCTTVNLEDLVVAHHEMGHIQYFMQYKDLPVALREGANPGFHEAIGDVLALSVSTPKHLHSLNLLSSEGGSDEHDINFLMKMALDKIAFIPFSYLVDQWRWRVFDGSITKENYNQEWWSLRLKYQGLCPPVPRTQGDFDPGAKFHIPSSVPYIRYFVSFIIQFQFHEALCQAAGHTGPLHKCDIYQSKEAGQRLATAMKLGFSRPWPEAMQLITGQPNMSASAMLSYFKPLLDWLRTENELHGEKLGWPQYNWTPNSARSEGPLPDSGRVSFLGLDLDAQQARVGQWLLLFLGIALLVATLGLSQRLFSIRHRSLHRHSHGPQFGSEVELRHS

Take `C[C@H](N[C@@H](CCc1ccccc1)C(=O)O)C(=O)N1[C@H](C(=O)O)C[C@@H]2CCC[C@@H]21` [ramiprilat]: the “potency as an ACE inhibitor relative to the parent compound ramipril” value in series [1] (compared with ramipril) was “up to 6 times”.
As for `CCOC(=O)[C@H](CCc1ccccc1)N[C@@H](C)C(=O)N1[C@H](C(=O)O)C[C@@H]2CCC[C@@H]21` [Ramipril, (2S,3aS,6aS)-1[(S)-N-[(S)-1-carboxy-3-phenylpropyl]alanyl] octahydrocyclopenta[b]pyrrole-2-carboxylic acid, 1-ethyl ester], the “Impurity D” value in series [2] (buffer L arginine 1.44 mg/ml) is 0.16%; in series [2] (setting [3]), 0.22%; in series [2] (setting [4]) it was 0.19%; in series [2] (setting [5]), 0.17%; in series [2] (setting [6]) it was 0.22%; in series [2] (setting [7]) it was 0.23%. For the same compound, in series [2] (setting [8]), the “Impurity D” value is listed as 0.20%. The “Impurity E” value is recorded as 13.7% in series [2] (buffer L arginine 1.44 mg/ml); 9.9% in series [2] (setting [3]); 11.3% in series [2] (setting [4]); 15.2% in series [2] (setting [5]); 8.2% in series [2] (setting [6]); 8.4% in series [2] (setting [7]). In series [2] (setting [8]), the “Impurity E” value was 7.5%.
Take ramipril diketopiperazine: the “activity as an ACE inhibitor” value in series [1] was “not active”.

The values above are taken from patent US20070098782A1, “Ramipril Formulation” (Selamine Limited, priority 2005, published 2007).
